According to ChEMBL document CHEMBL1201862, “PubChem BioAssay data set” (2004):
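These data come from cells grown in 96-well plates and exposed to compound for 48 hours at five concentrations. GI50 = concentration required for 50% inhibition of growth.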 The source made the active and inactive calls. No stated cut-off is given here; in the data, active = GI50 up to about 1.1 µM and inactive = higher.

How the values were obtained:
Test in all cases: DTP human tumour cell line panel, 48 h
MDA-N = tested on: MDA-N
NCI-H460 = tested on: NCI-H460
Malme-3M = tested on: Malme-3M
EKVX = tested on: EKVX
SW-620 = tested on: SW-620
NCI-H522 = tested on: NCI-H522
MDA-MB-231 = tested on: MDA-MB-231
SNB-19 = tested on: SNB-19
MOLT-4 = tested on: MOLT-4
RXF 393 = tested on: RXF 393
RPMI-8226 = tested on: RPMI-8226
BT-549 = tested on: BT-549
MCF7 = tested on: MCF7
OVCAR-4 = tested on: OVCAR-4
SK-MEL-28 = tested on: SK-MEL-28
CCRF-CEM = tested on: CCRF-CEM
Hs-578T = tested on: Hs-578T
HOP-92 = tested on: HOP-92
NCI-H226 = tested on: NCI-H226
NCI/ADR-RES = tested on: NCI/ADR-RES

Structure (SMILES) | GI50 (MDA-N) | GI50 (NCI-H460) | GI50 (Malme-3M) | GI50 (EKVX) | GI50 (SW-620) | GI50 (NCI-H522) | GI50 (MDA-MB-231) | GI50 (SNB-19) | GI50 (MOLT-4) | GI50 (RXF 393) | GI50 (RPMI-8226) | GI50 (BT-549) | GI50 (MCF7) | GI50 (OVCAR-4) | GI50 (SK-MEL-28) | GI50 (CCRF-CEM) | GI50 (Hs-578T) | GI50 (HOP-92) | GI50 (NCI-H226) | GI50 (NCI/ADR-RES)
Cc1c2cnccc2c(C)c2c1c1ccccc1n2CCOC(=O)c1ccccc1 | 17.6 µM (inactive) | 3.45 µM (inactive) | 11.5 µM (inactive) | 13.3 µM (inactive) | 6.31 µM (inactive) | 11.4 µM (inactive) | 38.9 µM (inactive) | 10.7 µM (inactive) | 5.25 µM (inactive) | 9.75 µM (inactive) | 8.57 µM (inactive) | 33 µM (inactive) | 9.64 µM (inactive) | 16.5 µM (inactive) | 15.2 µM (inactive) | 7.52 µM (inactive) | 30.1 µM (inactive) | 27.7 µM (inactive) | 12.6 µM (inactive) | 8.49 µM (inactive)
COC(=O)/C=C1\C(=O)N(C(C)=O)c2ccc(Br)cc21 | 11 µM (inactive) | 14.6 µM (inactive) | 14.1 µM (inactive) | 15.2 µM (inactive) | 6.03 µM (inactive) | 3.73 µM (inactive) | 14.9 µM (inactive) | 14.3 µM (inactive) | 3.03 µM (inactive) | 7.46 µM (inactive) | 2.66 µM (inactive) | 9.08 µM (inactive) | 4.5 µM (inactive) | 13.2 µM (inactive) | 14.5 µM (inactive) | 1.47 µM (inactive) | 8.39 µM (inactive) | 13.6 µM (inactive) | 15.1 µM (inactive) | 11.7 µM (inactive)
Cc1ccc(N2C=Nn3c(nc4sc5c(c4c3=O)CCCC5)C2)cc1 | 70.5 µM (inactive) | 50.1 µM (inactive) | 49.4 µM (inactive) | 80 µM (inactive) | 51.8 µM (inactive) | 39.1 µM (inactive) | 43.6 µM (inactive) | 78.2 µM (inactive) | > 100 µM (inactive) | 24.8 µM (inactive) | 32.1 µM (inactive) | > 100 µM (inactive) | 38.3 µM (inactive) | 37.8 µM (inactive) | 93.5 µM (inactive) | 45.2 µM (inactive) | 28.1 µM (inactive) | > 100 µM (inactive) | 55 µM (inactive) | 70.3 µM (inactive)
CCC(=O)OCOc1ccc(/C=C2\CCC(CN(C)C)C2=O)cc1 (stereo not given) | 5.47 µM (inactive) | 15.9 µM (inactive) | 3.96 µM (inactive) | 14 µM (inactive) | 2.32 µM (inactive) | 1.93 µM (inactive) | 3.67 µM (inactive) | 16.7 µM (inactive) | 2.51 µM (inactive) | 3.44 µM (inactive) | 2.43 µM (inactive) | 2.05 µM (inactive) | 3.03 µM (inactive) | 4.09 µM (inactive) | 4.29 µM (inactive) | 1.61 µM (inactive) | 6.27 µM (inactive) | 11 µM (inactive) | 13.8 µM (inactive) | 2.96 µM (inactive)
O=C1C[C@H](COCc2ccccc2)NC(=O)C[C@H](COCc2ccccc2)NC(=O)C[C@H](COCc2ccccc2)N1 | > 100 µM (inactive) | > 100 µM (inactive) | > 100 µM (inactive) | > 100 µM (inactive) | > 100 µM (inactive) | > 100 µM (inactive) | 26.7 µM (inactive) | 18.6 µM (inactive) | 5.9 µM (inactive) | 11.5 µM (inactive) | > 100 µM (inactive) | 41.6 µM (inactive) | > 100 µM (inactive) | > 100 µM (inactive) | > 100 µM (inactive) | > 100 µM (inactive) | 39.9 µM (inactive) | 12.2 µM (inactive) | > 100 µM (inactive) | > 100 µM (inactive)
COC(=O)Nc1nc2cc(S(=O)(=O)N3CCOCC3)ccc2[nH]1 | 27.6 µM (inactive) | > 100 µM (inactive) | > 100 µM (inactive) | > 100 µM (inactive) | 54.1 µM (inactive) | > 100 µM (inactive) | > 100 µM (inactive) | > 100 µM (inactive) | 94.4 µM (inactive) | > 100 µM (inactive) | 30.3 µM (inactive) | > 100 µM (inactive) | > 100 µM (inactive) | > 100 µM (inactive) | 49.7 µM (inactive) | 52.8 µM (inactive) | > 100 µM (inactive) | > 100 µM (inactive) | > 100 µM (inactive) | > 100 µM (inactive)
COc1cc(-c2cc(O)c(-c3ccc4ccccc4n3)c(O)n2)cc(OC)c1OC | 3.56 µM (inactive) | 31 µM (inactive) | 13.1 µM (inactive) | > 52 µM (inactive) | 19.1 µM (inactive) | 13.2 µM (inactive) | 36.6 µM (inactive) | > 75.7 µM (inactive) | 6.97 µM (inactive) | 39.9 µM (inactive) | > 50 µM (inactive) | 80.4 µM (inactive) | 39.1 µM (inactive) | > 38.5 µM (inactive) | 42.1 µM (inactive) | 10.3 µM (inactive) | 57.4 µM (inactive) | 26.2 µM (inactive) | > 48.3 µM (inactive) | 26.9 µM (inactive)
CCCCCCCCCC(=O)NCCc1c[nH]c2ccc(OC)cc12 | 18.8 µM (inactive) | 23.3 µM (inactive) | 18.2 µM (inactive) | 28 µM (inactive) | 18.2 µM (inactive) | 16 µM (inactive) | 15.1 µM (inactive) | 16.5 µM (inactive) | 64.7 µM (inactive) | 19 µM (inactive) | 21.1 µM (inactive) | 18.6 µM (inactive) | 17.5 µM (inactive) | > 100 µM (inactive) | 17.9 µM (inactive) | 7.26 µM (inactive) | 20.1 µM (inactive) | 16.2 µM (inactive) | 19.9 µM (inactive) | 19.2 µM (inactive)
NC(=O)CO/N=C1/C(=C2/C(=O)Nc3ccccc32)Nc2ccccc21 | 53 µM (inactive) | 1.11 µM (active) | > 100 µM (inactive) | > 100 µM (inactive) | 4.95 µM (inactive) | > 100 µM (inactive) | > 100 µM (inactive) | > 100 µM (inactive) | 3.44 µM (inactive) | 0.491 µM (active) | 17.9 µM (inactive) | 12.4 µM (inactive) | 1.38 µM (inactive) | > 100 µM (inactive) | > 100 µM (inactive) | 11.5 µM (inactive) | > 100 µM (inactive) | > 100 µM (inactive) | 4.35 µM (inactive) | > 100 µM (inactive)
O=C(c1ccccc1)c1ccc2nc3n(c2c1)C(c1c(Cl)cccc1Cl)SC3 (stereo not given) | 1.63 µM (inactive) | 3.66 µM (inactive) | 2.81 µM (inactive) | 4.63 µM (inactive) | 3.53 µM (inactive) | 1.74 µM (inactive) | 18.4 µM (inactive) | 3.85 µM (inactive) | 2.72 µM (inactive) | 5.94 µM (inactive) | 3.51 µM (inactive) | 3.54 µM (inactive) | 4.09 µM (inactive) | 7.45 µM (inactive) | 10.4 µM (inactive) | 1.27 µM (inactive) | 3.67 µM (inactive) | 5.08 µM (inactive) | 31.2 µM (inactive) | 2.13 µM (inactive)
COc1ccc([C@H]2C=C(c3cc(F)c(Cl)cc3Cl)NC(=S)N2)cc1 | 11.1 µM (inactive) | 20.1 µM (inactive) | 40.6 µM (inactive) | 28 µM (inactive) | 30.9 µM (inactive) | 31.8 µM (inactive) | 27.2 µM (inactive) | 61 µM (inactive) | 17.7 µM (inactive) | 18.8 µM (inactive) | 21.7 µM (inactive) | 32.7 µM (inactive) | 32.6 µM (inactive) | 28.3 µM (inactive) | 47 µM (inactive) | 30.2 µM (inactive) | 79.1 µM (inactive) | 24 µM (inactive) | 56.1 µM (inactive) | 25.7 µM (inactive)
Clc1n[nH]c2ccccc12 | > 100 µM (inactive) | > 100 µM (inactive) | > 100 µM (inactive) | 86.5 µM (inactive) | > 100 µM (inactive) | > 100 µM (inactive) | > 100 µM (inactive) | > 100 µM (inactive) | > 100 µM (inactive) | > 100 µM (inactive) | > 100 µM (inactive) | 14.7 µM (inactive) | > 100 µM (inactive) | > 100 µM (inactive) | > 100 µM (inactive) | > 100 µM (inactive) | > 100 µM (inactive) | > 100 µM (inactive) | 71 µM (inactive) | > 100 µM (inactive)
